These results are taken from US7833977B2, “Use of L-Carnitine as stabilizing agent of proteins” (Sigma-Tau Industrie Farmaceutiche Riunite S.p.A., priority 2000, dated 2010).

“Also recorded” adds a separate entry of the source.

Experiment [1] has as its system α-crystallin. Description: GFAP gel forming assay (falling ball viscosimetry) with α-crystallin from treated lenses. It is filed as biochemical, rat. To be noted: α-crystallin from H2O2 ± L-carnitine-treated lenses; 37° C., 1 h. An excerpt: The sedimentation assay devised by Nicholl and Quinlan (Nicholl, I. D., and Quinlan, R. A. (1994), EMBO J 13, 945-953) was used to assess α-crystallin-induced inhibition of intermediate filament assembly. Purified porcine glial fibrillary acidic: protein (GFAP) was used for these studies; it was purified from porcine spinal cord by axonal flotation as described previously (Pemg, M. D., et al (1999), J Cell Sci. 112, 2099-2112, MacLean-Fletcher, S., and Pollard, T. D. (1980), Biochem Biophys Res Commun 96, 18-27). The gel formation assay was based on a method used to monitor actin binding protein activity by falling ball viscometry (Pemg, M. D., et al (1999), J Cell Sci. 112, 2099-2112). α-Crystallins were mixed with GFAP in 8 M urea, 20 mM Tris-HCI, pH 8.0, 5 mM EDTA, 25 mM 2-mercaptoethanol and then stepwise dialyzed in 10 mM Tris-HCI, pH 8.0, 25 mM 2-mercaptoethanol. Assembly of the GFAP intermediate filaments, in the presence or absence of α-crystallin, was induced by the addition of a 20-fold concentrated buffer to give a final concentration of 100 mM imidazole-HCI, pH 6.8, 0.5 mM DTT. A 100-μl aliquot of sample was loaded into a glass tube and used for the viscosity assay. The tube was then immersed in a 37° C. water bath for 1 h before the gel formation assay. A ball was then placed into the tube, and the ability of the solution to support the ball was monitored. […]

Experiment [2] concerns rat lenses. Briefly: Rat lens organ culture exposed to H2O2 with or without L-carnitine. The class given is cell-based, Sprague-Dawley rats. Conditions: after 24 h incubation with H2O2 ± L-carnitine. The protocol: Four-month-old Sprague-Dawley rats were anesthesized with 5 mg/kg xylazine and 65 mg/kg ketamine, and decapitated. Immediately after, eyes were enucleated, extracted and placed in 2 ml of modified TC-199 medium. Lens integrity was assessed by measuring protein leached into the medium after 30-60 min of culture; damaged lenses were discarded. One lens of each pair was placed in culture medium with no H2O2 and used as a control. […] The controlateral lens of each pair was placed in medium and, after equilibration under 5% CO2 at 37° C., was exposed to 500 μM H2O2 in the absence or presence of 300 μM L-carnitine. After 24 h of incubation, morphological characteristics and changes were recorded, and the lenses were photographed. The incubated lenses were rinsed with saline solution, blotted on filter paper, weighed, and then immediately processed for biochemical analysis. To determine lactate dehydrogenase (LDH) leakage, lenses were incubated individually in each different medium, and the medium was harvested daily and saved for LDH analysis.
Decapsulated lenses were homogenized with disposable pestles and then sonicated in extract buffer (20 mM HEPES, 0.2 mM EDTA, 0.5 mM dithiothreitol, 450 mM NaCl, 25% glycerol, […] leupeptin, 0.5 μg/ml protinin, 0.5 mM phenylmethanesulfonyl fluoride) on ice. Aliquots of the homogenate from each of the incubated lenses were removed for GSH and L-carnitine analysis. The remainder was centrifuged for 25 min at 20,000×g to separate the supernatant from the pellet. The pellet was washed with 1.0 ml buffer and dried under nitrogen. This fraction was designated “water-insoluble fraction”. The supernatant fraction was dialyzed twice against 3 ml of 0.025 mol/l phosphate buffer, pH 7.4 for 48 h and lyophilized. This fraction was designated “water-soluble” fraction. The water-soluble and water-insoluble fractions were delipidated with 3.0 ml chloroform:methanol (2:1) for 16 h under shaking followed by centrifugation at 2,000 g for 5 min.
The water-insoluble proteins were suspended in 0.2 M N-ethylmorpholine acetate (pH 8.1). An aliquot (10%) was used to quantitate the amount of total protein. Samples were digested by the sequential addition of proteolytic enzymes (collagenase, pronase, aminopeptidase and carboxypeptidase A, carboxypeptidase B and carboxypeptidase y), directly to the reaction mixture at 37° C. in the presence of 0.02% sodium azide. After enzymatic digestion, the free N-(γ-glutamyl)lysine isopeptide cross-link was resolved by HPLC and quantitated by amino acid analysis (Hohl, D., et al (1991), J Biol Chem. 266, 6626-6636). In a related set of experiments, the isopeptide content of lenses was determined without prior extraction. […]

For experiment [3], the system named is α-crystallin. Briefly: Chaperone-like activity of α-crystallin from treated lenses (heat-induced βL-crystallin aggregation, light scattering at 360 nm). It is filed as biochemical, rat. To be noted: 100 or 200 μg α-crystallin + 200 μg βL-crystallin; 55° C. or 58° C. The method, then: The following experiments were performed essentially as described elsewhere (Horwitz, J. (1992) Proc Natl Acad Sci USA. 89, 10449-10453). The chaperone-like activity of α-crystallin from control and H2O2±L-carnitine treated lenses was determined by heat denaturation studies. The extent to which the unmodified or modified α-crystallin preparation protected βL-crystallin (used as the target protein) from heat-induced denaturation and aggregation was assessed as follows: 100 μg or 200 μg of α-crystallin were added to 200 μg of βL-crystallin in a 1.5-ml cuvette and made up to a final volume of 1 ml with 50 mM phosphate buffer, pH 7.0. The cuvette was placed in a temperature-regulated cell holder attached to a UV spectrophotometer. Light scattering due to protein denaturation and aggregation was monitored at. 360 nm absorbance for 3,000 s at 55° C. or for 1,800 s at 58° C.
The chaperone properties of the purified water-soluble α-crystallin were determined by crystallin (target protein) aggregation assay. Characteristically, βL-crystallin aggregates at elevated temperatures. The addition of α-crystallin either prevents or decreases the heat-induced aggregation of βL-crystallin, which is measured by light scattering at 360 nm. Since the ratio of α to β determines the degree of protection against heat-induced aggregation, we used 100 μg or 200 μg of α-crystallin and 200 μg of βL-crystallin. […]

The test system of experiment [4] is α-crystallin. Briefly: Tryptophan fluorescence of α-crystallin fractions from treated lenses. The arrangement: species or system rat. Conditions: excitation 295 nm, emission 330 nm. The source says: The loss of-protein tryptophan fluorescence, an indicator of tryptophan oxidation, seems to be a marker of crystallin integrity. We therefore measured-tryptophan fluorescence in lens crystallin (Perkin-Elmer 650-40 spectrophotometer) according to a previously described method (Jones, R. H. V., and Hothersall, J. S. (1993), Exp Eye Res 57, 783-790). The excitation wavelength was set to 295 nm, and the fluorescence emission was detected at 330 nm.

For experiment [5], the system named is lens crystallins. To be noted: Swamy-Mruthinti and Carter 1999; cited from earlier work.

In the case of `OO` [H2O2], in experiment [1], the “Inhibition of GFAP gel formation by α-crystallin” value is “did not affect gel formation”. For the same compound, in experiment [2], the “Lens clarity / opacification” value is “became opaque”; the “Lens morphology by optical and electron microscopy” value is “Ballooning, liquefaction and various degrees of fiber swelling”. In addition, in experiment [3], the “Capacity of α-crystallin to prevent heat-induced aggregation of βL-crystallin” value was “significant decrease”. Besides, the “Loss of tryptophan fluorescence in α-crystallin” value in experiment [4] was 2.7 fold.

On to `C[N+](C)(C)C[C@H](O)CC(=O)[O-]` [L-carnitine], for which the “Inhibition of GFAP gel formation by α-crystallin” value in experiment [1] is “blocked GFAP gel formation to the same extent as α-crystallin from control lenses”. Further, in experiment [5], the “Effect on in vitro glycation of lens crystallins” value (from here on “Effect on in vitro glycation”) was “ineffective”. Besides, in experiment [2], the “Lens clarity / opacification” value was “remained clear; also recorded: remained transparent”; the “Lens morphology by optical and electron microscopy” value was “cell shape was unaltered and that fiber cells were intact”. Further, the “Capacity of α-crystallin to prevent heat-induced aggregation of βL-crystallin” value in experiment [3] is “prevented this negative effect”. For the same compound, the “Loss of tryptophan fluorescence in α-crystallin” value in experiment [4] was “restored the basal value”.

As to `CC(=O)Oc1ccccc1C(=O)O` [acetyl salicylic acid], the “Effect on in vitro glycation” value in experiment [5] is listed as “decreased crystallin glycation”.

In the case of `CC(=O)O[C@H](CC(=O)[O-])C[N+](C)(C)C` [acetyl L-carnitine], the “Effect on in vitro glycation” value in experiment [5] is listed as “decreased crystallin glycation”.
